Reference: BindingDB's records for doi:10.1124/jpet.104.081224 (German Cancer Research Center, 2005)

What was measured:
[1] = target: ATP-binding cassette sub-family C member 2 (Homo sapiens, UniProt Q92887)
[2] = target: T1, Solute carrier organic anion transporter family member 1B3 (Homo sapiens, UniProt Q9NPD5)
T1 sequence (Q9NPD5 whole entry): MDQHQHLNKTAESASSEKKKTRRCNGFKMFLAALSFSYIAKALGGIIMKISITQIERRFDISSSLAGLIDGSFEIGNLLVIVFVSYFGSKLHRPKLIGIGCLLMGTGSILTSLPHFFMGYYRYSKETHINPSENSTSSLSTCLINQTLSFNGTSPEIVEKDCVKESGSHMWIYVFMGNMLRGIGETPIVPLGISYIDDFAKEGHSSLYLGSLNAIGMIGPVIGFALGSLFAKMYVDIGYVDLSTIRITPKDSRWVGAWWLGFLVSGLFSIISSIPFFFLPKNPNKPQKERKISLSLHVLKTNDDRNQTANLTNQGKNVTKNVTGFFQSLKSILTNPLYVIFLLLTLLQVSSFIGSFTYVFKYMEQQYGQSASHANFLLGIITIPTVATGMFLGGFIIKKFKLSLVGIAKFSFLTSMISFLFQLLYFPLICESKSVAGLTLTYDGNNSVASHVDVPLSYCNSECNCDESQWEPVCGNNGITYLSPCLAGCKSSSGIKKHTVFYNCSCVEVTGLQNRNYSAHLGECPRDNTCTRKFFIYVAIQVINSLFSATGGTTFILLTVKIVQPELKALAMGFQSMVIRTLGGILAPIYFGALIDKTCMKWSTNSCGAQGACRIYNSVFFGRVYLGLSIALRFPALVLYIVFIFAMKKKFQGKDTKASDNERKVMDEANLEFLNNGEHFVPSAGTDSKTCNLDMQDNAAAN

ATP-binding cassette sub-family C member 2, sequence (Q92887 whole entry): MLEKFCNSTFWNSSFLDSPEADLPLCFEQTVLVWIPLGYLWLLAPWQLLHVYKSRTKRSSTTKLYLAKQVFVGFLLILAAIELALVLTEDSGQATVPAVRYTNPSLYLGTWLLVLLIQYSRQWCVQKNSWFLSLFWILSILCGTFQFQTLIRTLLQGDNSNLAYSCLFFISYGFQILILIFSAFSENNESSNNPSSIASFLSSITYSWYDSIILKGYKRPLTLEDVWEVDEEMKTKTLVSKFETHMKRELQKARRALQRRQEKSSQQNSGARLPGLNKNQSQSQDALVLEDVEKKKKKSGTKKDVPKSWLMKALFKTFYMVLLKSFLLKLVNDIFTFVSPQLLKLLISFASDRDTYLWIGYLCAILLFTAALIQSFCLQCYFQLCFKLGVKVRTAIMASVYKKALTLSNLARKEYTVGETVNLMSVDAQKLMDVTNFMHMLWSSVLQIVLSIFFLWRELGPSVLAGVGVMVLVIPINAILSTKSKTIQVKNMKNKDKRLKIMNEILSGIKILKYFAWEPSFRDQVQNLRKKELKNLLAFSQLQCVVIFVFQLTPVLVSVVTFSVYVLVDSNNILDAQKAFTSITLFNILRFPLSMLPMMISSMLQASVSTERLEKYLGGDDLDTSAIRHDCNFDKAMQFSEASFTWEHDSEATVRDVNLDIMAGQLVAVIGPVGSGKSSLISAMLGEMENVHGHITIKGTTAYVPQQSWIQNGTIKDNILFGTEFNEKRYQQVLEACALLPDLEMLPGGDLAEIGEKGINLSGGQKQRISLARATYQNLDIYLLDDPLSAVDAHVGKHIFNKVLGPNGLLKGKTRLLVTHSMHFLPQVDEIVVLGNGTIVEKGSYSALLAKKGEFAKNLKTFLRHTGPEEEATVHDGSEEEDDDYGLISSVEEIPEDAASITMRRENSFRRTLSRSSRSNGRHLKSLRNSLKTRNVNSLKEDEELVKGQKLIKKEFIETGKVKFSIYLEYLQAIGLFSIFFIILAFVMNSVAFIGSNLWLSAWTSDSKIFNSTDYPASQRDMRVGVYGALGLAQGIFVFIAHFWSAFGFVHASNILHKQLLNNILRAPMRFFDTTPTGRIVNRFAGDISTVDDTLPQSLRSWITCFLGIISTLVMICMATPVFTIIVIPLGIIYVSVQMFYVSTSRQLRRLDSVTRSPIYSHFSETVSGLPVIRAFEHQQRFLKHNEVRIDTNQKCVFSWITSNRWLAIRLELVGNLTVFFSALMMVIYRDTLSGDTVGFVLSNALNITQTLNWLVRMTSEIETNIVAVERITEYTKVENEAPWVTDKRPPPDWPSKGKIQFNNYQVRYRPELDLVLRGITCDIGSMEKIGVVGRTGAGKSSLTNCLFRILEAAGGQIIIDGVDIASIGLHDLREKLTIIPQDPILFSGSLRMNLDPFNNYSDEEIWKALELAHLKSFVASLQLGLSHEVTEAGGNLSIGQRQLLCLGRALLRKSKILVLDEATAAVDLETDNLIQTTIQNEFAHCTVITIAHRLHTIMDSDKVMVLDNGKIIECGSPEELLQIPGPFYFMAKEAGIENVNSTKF

Ki [1]: 8.5 µM | Ki [2]: 0.6 µM
Structure (SMILES): CN(C)C(=O)CCSC(SCCC(=O)O)c1cccc(C=Cc2ccc3ccc(Cl)cc3n2)c1 (configuration not stated) [NSC_60719]
